Measured values from patent publication US20130143886A1, “METHODS FOR PRESERVING AND/OR INCREASING RENAL FUNCTION USING XANTHINE OXIDOREDUCTASE INHIBITORS” (priority 2006, published 2013).
Values joined by “and” are separate entries in the source; they are usually repeats but may differ in a detail not shown here. Identical values can stand only once.

Assays:
[1] = system: human subjects with a history of nephrolithiasis; test: Renal function measures and serum urate in 4-week double-blind phase 2 study and open-label long-term febuxostat study; assay type: in vivo; details: for Measured Creatinine Clearance / Serum Creatinine / Urine Uric Acid / Estimated GFR / Serum Urate: individual subjects
Procedure: (1) febuxostat 40 mg per day, (2) febuxostat 80 mg per day, (3) febuxostat 120 mg per day, or (4) placebo. Subjects completing the double-blind study entered an open-label, long-term study and began treatment with 80 mg febuxostat per day. Febuxostat doses could be titrated over the initial 6 months to 40 mg or 120 mg febuxostat per day based on the subjects' serum urate levels and the occurrence of adverse events. In the study subset, a post-hoc analysis of nephrolithiasis outcome in the study subjects (n=13) who had received febuxostat for ≧30 months. In the event of an occurrence of renal calculus formation, all such stones were analyzed for mineral content. The following were the criteria for inclusion in the study: (1) a history or presence of gout as defined by the American Rheumatism Association Preliminary criteria; […] (3) serum urate level of ≧8.0 mg/dL at the start of the double-blind study. The following were the criteria for exclusion from the study: […]

remnant kidney (RK) rats = test: Tubulointerstitial fibrosis quantification; assay type: in vivo, Male Wistar rats; details: febuxostat in both RK and RK+OA rats
Procedure: Male Wistar rats (295-340 g) were used to produce rats with remnant kidney (RK) as follows. […] Rats were then assigned to one of four treatment groups: Group 1, RK control rats (n=7); Group 2, RK+febuxostat (Fx) rats (n=8); Group 3, RK+oxonic acid (OA) rats (n=6); and Group 4, RK+OA+Fx (n=10). Oxonic acid (OA) (Sigma-Aldrich, St Louis Mo., USA), administered at 750 mg/kg body weight daily by oral gavage, was given starting the day after the ⅚ nephrectomy. […] Arteriolar morphology was assessed by indirect peroxidase immunostaining for alpha-smooth muscle actin (DAKO Corp, Carpinteria, Calif., USA). […] The degree of tubulointerstitial fibrosis was quantified in 10 non-crossed fields of cortex (100×) per biopsy. Slides were analyzed by light microscopy (Olympus BX51; Olympus American, Melville, N.Y., USA) and captured by a digital video camera (CoolSnap Pro; Media Cybernetics, Silver Spring, Md., USA). Pictures were processed on a computer and analyzed using Image Pro-Plus (version 5.0; Media Cybernetics, Silver Spring, Md., USA). Taking advantage of the capabilities of color recognition with this software, positive blue-stained areas (fibrosis) were selected and quantified in pixel units; glomeruli and vessels were previously excluded from the field. For each biopsy, the mean amount of positive blue-stained area was calculated by averaging the values from ten examined fields.

[2] = double-blind Wk 4, DB dose 40 mg/day
[3] = double-blind Wk 4, DB dose 80 mg/day
[4] = double-blind Wk 4, DB dose 120 mg/day
[5] = open-label Yr 1, OL dose 80 mg/day
[6] = open-label Yr 1, OL dose 120 mg/day
[7] = open-label Yr 2, OL dose 80 mg/day
[8] = open-label Yr 2, OL dose 120 mg/day
[9] = open-label Yr 3, OL dose 80 mg/day
[10] = open-label Yr 3, OL dose 120 mg/day

Cc1nc(-c2ccc(OCC(C)C)c(C#N)c2)sc1C(=O)O [febuxostat, 2-[3-cyano-4-(2-methylpropoxy)phenyl]-4-methylthiazole-5-carboxylic acid]
Measured Creatinine Clearance [1, 2]: 82 mL/min and 56 mL/min
Serum Creatinine [1, 2]: 1.2 mg/dL and 1.3 mg/dL
Urine Uric Acid [1, 2]: 504 mg/day and 202 mg/day
Measured Creatinine Clearance [1, 3]: 103 mL/min and 147 mL/min and 93 mL/min and 88 mL/min and 63 mL/min and 64 mL/min and 94 mL/min
Serum Creatinine [1, 3]: 1.1 mg/dL (3×) and 1.2 mg/dL (3×) and 1.5 mg/dL
Urine Uric Acid [1, 3]: 387 mg/day and 504 mg/day and 319 mg/day and 286 mg/day and 235 mg/day and 185 mg/day and 403 mg/day
Measured Creatinine Clearance [1, 4]: 38 mL/min
Serum Creatinine [1, 4]: 1.4 mg/dL
Urine Uric Acid [1, 4]: 17 mg/day
Estimated GFR [1, 5]: 80 mL/min and 73 mL/min (2×) and 67 mL/min and 68 mL/min (2×) and 57 mL/min and 61 mL/min and 54 mL/min and 33 mL/min and 49 mL/min
Serum Creatinine [1, 5]: 1.1 mg/dL (2×) and 1.2 mg/dL (4×) and 1.4 mg/dL (2×) and 1.3 mg/dL and 1.6 mg/dL and 1.5 mg/dL
Serum Urate [1, 5]: 4.3 mg/dL and 5.9 mg/dL and 4.4 mg/dL (2×) and 6.1 mg/dL and 4.5 mg/dL and 6.4 mg/dL and 4.1 mg/dL and 3.6 mg/dL and 7.4 mg/dL and 4.6 mg/dL
Estimated GFR [1, 6]: 63 mL/min and 84 mL/min
Serum Creatinine [1, 6]: 1.2 mg/dL and 1.0 mg/dL
Serum Urate [1, 6]: 3.1 mg/dL and 4.6 mg/dL
Estimated GFR [1, 7]: 72 mL/min and 80 mL/min and 74 mL/min and 61 mL/min and 62 mL/min and 56 mL/min and 59 mL/min and 39 mL/min and 49 mL/min and 73 mL/min and 75 mL/min
Serum Creatinine [1, 7]: 1.2 mg/dL and 1.1 mg/dL (4×) and 1.3 mg/dL (3×) and 1.4 mg/dL (2×) and 1.5 mg/dL
Serum Urate [1, 7]: 4.1 mg/dL and 4.2 mg/dL and 4.8 mg/dL and 7.6 mg/dL and 6.4 mg/dL and 9.7 mg/dL and 5.4 mg/dL and 4.7 mg/dL and 6.0 mg/dL and 4.4 mg/dL and 5.7 mg/dL
Estimated GFR [1, 8]: 58 mL/min and 75 mL/min
Serum Creatinine [1, 8]: 1.3 mg/dL and 1.1 mg/dL
Serum Urate [1, 8]: 3.0 mg/dL and 4.2 mg/dL
Estimated GFR [1, 9]: 72 mL/min (2×) and 66 mL/min and 61 mL/min and 57 mL/min and 51 mL/min and 54 mL/min and 39 mL/min and 40 mL/min and 65 mL/min and 67 mL/min
Serum Creatinine [1, 9]: 1.2 mg/dL (5×) and 1.3 mg/dL and 1.4 mg/dL (3×) and 1.5 mg/dL and 1.8 mg/dL
Serum Urate [1, 9]: 5.8 mg/dL (2×) and 3.2 mg/dL and 3.9 mg/dL and 3.3 mg/dL and 7.5 mg/dL and 4.6 mg/dL and 3.8 mg/dL (2×) and 6.8 mg/dL and 5.2 mg/dL
Estimated GFR [1, 10]: 57 mL/min and 52 mL/min
Serum Creatinine [1, 10]: 1.3 mg/dL and 1.5 mg/dL
Serum Urate [1, 10]: 3.3 mg/dL and 3.8 mg/dL
Renal function throughout the study ([1]; subjects receiving febuxostat): maintained at generally stable levels
Tubulointerstitial (TI) fibrosis (in words) (remnant kidney (RK) rats): significantly decreased
